From publication PMC8894198, “Biosynthetic Microcin J25 Exerts Strong Antibacterial, Anti-Inflammatory Activities, Low Cytotoxicity Without Increasing Drug-Resistance to Bacteria Target” (Frontiers in Immunology, 2022)
Where a SMILES comes first, the peptide text is derived from it. Bridges are numbered along the chain shown (N, C = ends).

What was measured:
E. coli K88 [1] = type: cell-based; details: sublethal concentrations 0.25 × and 0.5 × MIC
Experimental: Mutation rates were based on rifampicin and refined ([28], [29]). Overnight cultures of E. coli K88 were diluted in 50 mL of LB broth at a ratio of 1:10,000 and grown for 3.5 h at 37°C. […] Eleven 1-mL replicates of each treatment group were grown at 37°C for 24 h. These cultures were then serially diluted and plated on LB agar plates containing 100 μg/mL rifampicin. Afterwards, plates were incubated at 37°C for 48 h. Single colonies on the plates were counted to determine CFU/mL. Mutagenesis rates were calculated using the bz-rates-mutation rate calculator (http://www.lcqb.upmc.fr/bzrates).

E. coli K88 [2] = test: MIC variability (cross-resistance) after 5 days at sub-MIC; type: cell-based; details: bacterial cells treated with MccJ25 (0.25 × MIC) for 5 days
Experimental: A 1:100 dilution of the bacteria was performed daily in the above MHB. Aliquots of the culture medium were used daily for 5 days thereafter to determine the MICs of ampicillin, tetracycline, aureomycin, and kanamycin. This study was performed based on our previous study ([29]).

[3] = tested on: E. coli O111:B4 LPS-challenged BALB/c mice; test: LPS-challenged mice experiment (septicemia model); type: in vivo
Experimental: Female BALB/c mice (5-6 weeks) was provided by HFK Bioscience Co. (Beijing, China). All mice were raised in laminar flow cabinets and housed individually in a room with strictly controlled temperature and humidity, where a 12-hour light and 12-hour dark cycle was implemented, and mice had free access to food and water throughout the experimental period.
E. coli O111:B4 LPS (Sigma-Aldrich) at a concentration of 15 mg/L was injected into the peritoneal cavity of female BALB/c mice (age 7 weeks, weight 15 ± 0.5 g), and approximately 30 min after the challenge of E. coli O111:B4 LPS, MccJ25 was orally gavaged to the mice at a concentration of 4.55 or 9.1 mg per kg body weight (BW). The concentrations of MccJ25 were selected based on our previous study ([24]). Mice were followed for 72 h to test the survival rate of mice that were later sacrificed. However, for LPS treated mice, when the lifespan of the mice was around 50%, the mice were sacrificed. The serum from mice were obtained. The lung, liver, spleen, jejunum, and ileum were harvested, kept in liquid nitrogen immediately, stored at -80°C until analysis. For histopathological assessment, tissues and organs were fixed using 4% paraformaldehyde, hematoxylin eosin (H&E) was applied to examine the histological and pathological changes according to the standard protocol as described previously ([24]).
In the LPS-challenged mice experiment, lifespan of mice was monitored for 72 h. In the cocktail of MDR E. coli strains infection experiment, BW change, rectal temperature, diarrhea scores and fecal image, or survival rate were measured. For the diarrhea score evaluation producer was referred to previous study ([24]).
The concentrations of tumor necrosis factor-α (TNF-α), interleukin-6 (IL-6), IL-4, interferon (IFN)-γ, and nitric oxide (NO) in serum were measured. In addition, TNF-α and NO levels were also measured in the supernatant of RAW264.7 cells. ELISA was performed using a commercial ELISA kit (eBioscience, San Diego, USA). LPS levels in plasma were analyzed using the QCL-1000 kit (Xiamen, China) based on the manufacturer’s standards. On the day of sacrifice, eyes were extracted with ethylenediaminetetraacetic acid (EDTA), and blood was collected into clean test tubes. Peripheral hemograms and white blood cells (WBCs) were analyzed using a Coulter LH755 hematology analyzer. The levels of serum D-lactate were measured using ELISA kit (Jiancheng, Nanjing, China) according to the manufacturer’s protocols.
The extent and mRNA expression levels of TNF-α, IL-6, IL-10, IL-1β, IFN-γ, and TLR4, and NF-κB in each body part of the jejunum, ileum, colon, and spleen and in RAW264.7 cells were clarified by RT–PCR as previously described ([31]). Primers for TNF-α, IL-6, IL-10, IL-1β, IFN-γ, TLR4, and NF-κB are described in Table S1 . The specific assay steps were as follows: total RNA was extracted from the jejunum, ileum, spleen, and cells by TRIzol reagent (Invitrogen, Carlsbad, CA). Combined with gel electrophoresis and a NanoDrop 2000 spectrophotometer (Thermo Fisher Scientific, Wilmington, DE), the quality and quantity of total RNA were determined. […] Then the 2^-ΔΔCt method was used for the next step of analysis.
Frozen tissue samples and fresh cells were homogenized in RIPA lysis buffer containing protease inhibitors (Applygen, Beijing, China). Protein levels were determined using a BCA protein assay kit (Thermo Fisher Scientific, Rockford, IL). Thirty micrograms of tissue and cell protein samples were electrophoresed on SDS polyacrylamide gels and electrotransferred to PVDF membranes (Millipore). […]

[4] = tested on: E. coli K88 on IPEC-1 cells; test: Protection against E. coli K88 adhesion and colonization of IPEC-1 cells; type: cell-based; details: 1, 2, 4, 8 × MIC for 3 h, then E. coli K88 for 2 h; plate counts; 6 biological replicates
Experimental: Capacity of against E. coli K88 adhesion and colonization of IPEC-1 cells was evaluated. IPEC-1 cells were cultured with or without MccJ25 for 3 h in the absence or presence of E. coli K88 for 2 h. The E. coli K88 adhesion and colonization in the IPEC-1 cells was determined. E. coli K88 (mean CFU/ml ± SEMs) were determined by plate counts, and determined from three individual experiments.
Figure S1. MccJ25 enhances intestinal epithelial cell to against E. coli K88 infection. […] IPEC-1 cells were cultured in the presence or absence of 1, 2, 4, 8 × MIC of MccJ25 for 3 h, then cells were treated with E. coli K88 for 2 h. The numbers of E. coli K88 were counted. E. coli K88 (mean CFU/ml ± SEMs) were determined by plate counts from 6 biological replicates. **P ≤ 0.01, ***P ≤ 0.001.

CC[C@H](C)[C@H](NC(=O)CNC(=O)[C@@H](NC(=O)[C@H](Cc1ccccc1)NC(=O)[C@H](Cc1ccc(O)cc1)NC(=O)[C@@H]1CCC(=O)NCC(=O)NCC(=O)N[C@@H](C)C(=O)NCC(=O)N[C@@H](Cc2c[nH]cn2)C(=O)N[C@@H](C(C)C)C(=O)N2CCC[C@H]2C(=O)N1)C(C)C)C(=O)NCC(=O)N[C@H](C(=O)N1CCC[C@H]1C(=O)N[C@H](C(=O)N[C@@H](CO)C(=O)N[C@@H](Cc1ccccc1)C(=O)N[C@@H](Cc1ccc(O)cc1)C(=O)NCC(=O)O)[C@@H](C)CC)[C@@H](C)O [MccJ25, microcin J25] (GGAGHVPEYFVGIGTPISFYG-OH; lactam N-8 (inferred); C-terminus assumed)
mutation rate compared to the control (E. coli K88 [1]): did not show a greater difference in mutation rate compared to the control
change in the MICs of ciprofloxacin, ampicillin, tetracycline and kanamycin (E. coli K88 [2]): no changes were observed
jejunum and ileum histopathology ([3]; 4.55 mg/kg BW): moderate villus damage and epithelial cell sloughing
jejunum and ileum histopathology ([3]; 9.1 mg/kg BW, compared with the control group): few changes in the villi, crypts and intestinal mucosa
serum levels of TNF-α, IL-6 and NO ([3]; ELISA, after LPS treatment): showed a decreasing trend
lung histopathology ([3]; H&E): partially reverse swelling and lung damage
liver and spleen histopathology ([3]; H&E, MccJ25 30 min after LPS): substantially reduced the degree of edema and degradation of cytoplasmic proteins
WBC count ([3]; different concentrations of MccJ25 vs LPS group): significantly reduce the counts of leukocytes
TNF-α, TLR4 and IL-6 mRNA expression ([3]; ileum, colon, or spleen, q-PCR): significantly decreased
plasma LPS concentrations ([3]; vs mice treated with LPS only): significantly decreased
phosphorylated NF-κB, p38 MAPK and IκB protein expression ([3]; western blot, vs LPS-infected group): significantly decreased
E. coli K88 adhesion and colonization [4]: significantly protects
